Results taken from US4242354A, “2-(2-Thenolythio)-propionylglycine: method for its preparation and pharmaceutical formulations containing said compound” (Mediolanum Farmaceutici S.r.L., priority 1978, dated 1980).

Assays:
[1] = Stability test: physical properties and weight variations on heating; format: physicochemical
Procedure: The stability tests were carried out according to the Rogers' nonisothermic method suitably integrated by the evaluation of physical data, melting point, weight variation, and spectrophotometric assay. For each single compound, the tests were performed on a series of samples, with the weight of 100 milligrams, added for the wet tests with 1 ml of distilled water. […] The sample were kept in a thermostat at increasing temperatures, i.e. from 25° to 80° C. […] The temperature, programmed according to the Rogers' formula, resulted to be 40° C. at the end of the first hour, 50° C. at the end of the second hour, 57° C. at the end of the third hour, 63° C. at the end of the fourth hour, 69° C. at the end of the fifth hour, 73° C. at the end of the sixth hour, 77° C. at the end of the seventh hour and, as already specified, 80° C. at the end of the eighth hour.
Still in Table 5, the sample from 1 to 5 refer, for each of the two compounds, to the dry substance while the samples from 6 to 10 refer to the solution or to the aqueous suspension obtained as above specified.
In the case of the wet-treated samples, the final weight was only established on the samples No. 10 brought to dryness at 60° C. under vacuum after an 8-hour heating.

[2] = tested on: histamine-induced bronchial spasm; test: Bronchial spasm due to histamine aerosol in the guinea-pig; format: in vivo, spotted guinea-pigs, male, Morini strain; design: key to time of resistance to the spasm, significance vs. controls (S): h.s.: highly significant; conditions: 50 mg/kg; for time of resistance to the spasm, significance vs. controls (S): one hour; for time of resistance to the spasm (E, mean ± standard error): one hour after treatment, control 114.1 ± 5.4
Procedure: Thirty spotted guinea-pigs, male, Morini strain, 400-500 g bodyweight, were used for the investigation, subdivided into 5 lots, each consisting of 6 animals. The animals were singly placed in a tightly sealed plexiglas cage into which a 0.1 percent aqueous solution of histamine hydrochloride was aerosolized. The time of resistance to the spasm was calculated from the moment of introduction into the cage up to the time of the appearance of the dyspnea crisis.
Group 1: controls with no treatment
In any case, the dose was 50 mg/kg.

[3] = tested on: SO2-induced experimental bronchitis; test: Experimental bronchitis in the rat (SO2 inhalation); format: in vivo, male rats, Sprague-Dawley strain; design: key to Macroscopic Examination, significance vs. controls (S) / Visualization of the bronchial tract, significance vs. controls (S) / Microscopic Examination, significance vs. controls (S): h.s.: highly significant; conditions: 50 mg/kg; for Visualization of the bronchial tract score (E, mean ± standard error): control 2.50 ± 0.26; for Microscopic Examination score (E, mean ± standard error): control 2.75 ± 0.16
Procedure: For the purpose 40 male rats, Sprague-Dawley strain, 320-370 grams, subdivided into 4 groups each consisting of 10 elements were subjected to the following treatments:
Group 1: poisoning treatment (SO2)
For the poisoning-induction the animals were subjected to a constant air flow containing SO2 at a 0.03 percent concentration. The poisoning treatment was given for 15 days subjecting the rats, 2 hours daily, to an inhalation of SO2 for 15-minute periods. […] The animals were killed on the day following the last inhalation.
The lungs were withdrawn together with the trachea, fixed in 10 percent formalin, and subjected to a macroscopic examination, dipped thereafter into the same fixing fluid for 24 hours, and thereafter for one hour in absolute ethanol.
The bronchial tree was thereafter evidenced with alcian blue; moreover, a subsequent staining was made with the Schiff's reagent in order to evidence the muchopolysaccharides.
Each lung was given the following arbitary score:
(1) Macroscopic Examination:
5=large hemorrhagic spots
(2) Visualization of the Bronchial Tree with Alcian Blue:
1=almost uniform staining
3=quite irregular staining.
(3) Bronchopulmonary Alterations at the Microscopic Examination: […]

[4] = tested on: citric acid-induced experimental bronchitis; test: Experimental bronchitis due to citric acid in the guinea-pig; format: in vivo, spotted guinea-pigs, Morini strain; design: key to Microscopic Examination (Table 12), significance vs. controls (S) / Visualization of the bronchial tract, significance vs. controls (S) / Microscopic Examination (Table 14), significance vs. controls (S): h.s.: highly significant; Microscopic Examination score (Table 12; E, mean ± standard error) / Visualization of the bronchial tract score (E, mean ± standard error) / Microscopic Examination score (Table 14; E, mean ± standard error): scale not given here; conditions: 50 mg/kg; for Microscopic Examination score (Table 12; E, mean ± standard error): control 4.00 ± 0.25; for Microscopic Examination score (Table 14; E, mean ± standard error): control 3.00 ± 0.00; for Visualization of the bronchial tract score (E, mean ± standard error): control 2.83 ± 0.16
Procedure: Twenty-four spotted guinea-pigs, Morini strain, bodyweight 450 grams approximately, were used for the investigation, subdivided into 4 groups, each consisting of 6 animals, subjected to the following treatments:
Group 1: poisoning treatment with citric acid
The poisoning was made introducing the experimental animals into tight-sealed plexiglass cages containing a solution of 7.5 percent citric acid for 15 minutes daily, 6 days weekly, for 4 weeks.
The animals were sacrificed on the day after the last application, and the lungs were subjected to the same treatments and to the same assessments performed with the same scores already used in the case of the rat.

[5] = sample 1, dry, 1 hour 30 minutes
[6] = sample 3, dry, 5 hours 15 minutes
[7] = sample 10, wet, 8 hours, brought to dryness
[8] = group 3, aerosol (so in the source)

CC(SC(=O)c1cccs1)C(=O)NCC(=O)O (stereo not drawn) [compound (I), 2-(2-thenoylthio)-propionylglycine]
Color [1, 5]: white | Smell [1, 5]: almost absent | Weight Fin. [1, 5]: 95.4 mg | Weight Variations [1, 5]: -5.26% | Color ([1]; sample 2, dry, 3 hours): white | Weight Fin. ([1]; sample 2, dry, 3 hours): 94.5 mg | Weight Variations ([1]; sample 2, dry, 3 hours): -5.03% | Color [1, 6]: white | Smell [1, 6]: almost absent | Weight Fin. [1, 6]: 95.1 mg | Weight Variations [1, 6]: -5.37% | Color ([1]; sample 4, dry, 8 hours): white | Smell ([1]; sample 4, dry, 8 hours): almost absent | Weight Fin. ([1]; sample 4, dry, 8 hours): 94.9 mg | Weight Variations ([1]; sample 4, dry, 8 hours): -5.74% | Smell ([1]; sample 5, dry, 8 hours): almost absent | Weight Fin. ([1]; sample 5, dry, 8 hours): 194.1 mg | Weight Variations ([1]; sample 5, dry, 8 hours): -3.67% | Smell ([1]; sample 6, wet): almost absent | Smell ([1]; sample 7, wet): almost absent | Smell ([1]; sample 8, wet): almost absent | Smell ([1]; sample 9, wet): almost absent | Weight Fin. [1, 7]: 201.3 mg | Weight Variations [1, 7]: -2.94% | bronchial-spasm relieving action ([2]; all the assessed routes): remarkable bronchial-spasm relieving action | time of resistance to the spasm, significance vs. controls (S) ([2]; group 2, orally): h.s. | time of resistance to the spasm (E, mean ± standard error) ([2]; group 2, orally, before treatment 116.00 ± 8.84): 184.7 ± 14.2 s | time of resistance to the spasm, significance vs. controls (S) ([2]; group 3, aerosol): h.s. | time of resistance to the spasm (E, mean ± standard error) ([2]; group 3, aerosol, before treatment 113.00 ± 5.62): 170.3 ± 10.9 s | time of resistance to the spasm, significance vs. controls (S) ([2]; group 4, intraperitoneally): h.s. | time of resistance to the spasm (E, mean ± standard error) ([2]; group 4, intraperitoneally, before treatment 112.16 ± 7.9): 187.2 ± 16.1 s | time of resistance to the spasm, significance vs. controls (S) ([2]; group 5, rectally): h.s. | time of resistance to the spasm (E, mean ± standard error) ([2]; group 5, rectally, before treatment 117.5 ± 6.39): 178.5 ± 11.9 s | Macroscopic Examination, significance vs. controls (S) ([3]; group 2, aerosol): h.s. | Microscopic Examination, significance vs. controls (S) ([3]; group 2, aerosol): h.s. | Visualization of the bronchial tract, significance vs. controls (S) ([3]; group 2, aerosol): h.s. | Visualization of the bronchial tract score (E, mean ± standard error) ([3]; group 2, aerosol): 0.87 ± 0.29 | Microscopic Examination score (E, mean ± standard error) ([3]; group 2, aerosol): 0.87 ± 0.29 | Macroscopic Examination, significance vs. controls (S) [3, 8]: h.s. | Microscopic Examination, significance vs. controls (S) [3, 8]: h.s. | Visualization of the bronchial tract, significance vs. controls (S) [3, 8]: h.s. | Visualization of the bronchial tract score (E, mean ± standard error) [3, 8]: 0.87 ± 0.29 | Microscopic Examination score (E, mean ± standard error) [3, 8]: 0.75 ± 0.31 | Macroscopic Examination score (E, mean ± standard error) ([3]; group 3, aerosol (so in the source), control 4.00 ± 0.26): 1.12 ± 0.39 | Macroscopic Examination, significance vs. controls (S) ([3]; group 4, subcutaneous): h.s. | Microscopic Examination, significance vs. controls (S) ([3]; group 4, subcutaneous): h.s. | Visualization of the bronchial tract, significance vs. controls (S) ([3]; group 4, subcutaneous): h.s. | Visualization of the bronchial tract score (E, mean ± standard error) ([3]; group 4, subcutaneous): 0.75 ± 0.31 | Microscopic Examination score (E, mean ± standard error) ([3]; group 4, subcutaneous): 1.00 ± 0.26 | protective action, experimental bronchitis (SO2) ([3]; rat): marked protective action | Microscopic Examination (Table 12), significance vs. controls (S) ([4]; Table 12, group 2, orally): h.s. | Microscopic Examination score (Table 12; E, mean ± standard error) ([4]; Table 12, group 2, orally): 2.00 ± 0.36 | Microscopic Examination (Table 12), significance vs. controls (S) ([4]; Table 12, group 3, aerosol): h.s. | Microscopic Examination score (Table 12; E, mean ± standard error) ([4]; Table 12, group 3, aerosol): 2.33 ± 0.49 | Microscopic Examination (Table 12), significance vs. controls (S) ([4]; Table 12, group 4, rectally): h.s. | Microscopic Examination score (Table 12; E, mean ± standard error) ([4]; Table 12, group 4, rectally): 1.83 ± 0.40 | Microscopic Examination (Table 14), significance vs. controls (S) ([4]; Table 14, group 2, orally): h.s. | Microscopic Examination score (Table 14; E, mean ± standard error) ([4]; Table 14, group 2, orally): 0.83 ± 0.30 | Microscopic Examination (Table 14), significance vs. controls (S) ([4]; Table 14, group 3, aerosol): h.s. | Microscopic Examination score (Table 14; E, mean ± standard error) ([4]; Table 14, group 3, aerosol): 1.00 ± 0.36 | Microscopic Examination (Table 14), significance vs. controls (S) ([4]; Table 14, group 4, rectally): h.s. | Microscopic Examination score (Table 14; E, mean ± standard error) ([4]; Table 14, group 4, rectally): 0.66 ± 0.42 | Visualization of the bronchial tract, significance vs. controls (S) ([4]; group 2, orally): h.s. | Visualization of the bronchial tract score (E, mean ± standard error) ([4]; group 2, orally): 1.16 ± 0.30 | Visualization of the bronchial tract, significance vs. controls (S) ([4]; group 3, aerosol): h.s. | Visualization of the bronchial tract score (E, mean ± standard error) ([4]; group 3, aerosol): 1.00 ± 0.36 | Visualization of the bronchial tract, significance vs. controls (S) ([4]; group 4, rectally): h.s. | Visualization of the bronchial tract score (E, mean ± standard error) ([4]; group 4, rectally): 1.00 ± 0.44 | protective action, experimental bronchitis (citric acid) ([4]; guinea-pig): marked protective action
